What follows are compounds tested against T1, human CYP11B2 (Homo sapiens, UniProt P19099) (assay: Inhibitory effect on hCYP11B2: aldosterone production in mitochondrial fraction of V79 cells stably expressing human CYP11B2, HTRF). Settings: 0.5 μmol/L deoxycorticosterone, 150 μmol/L NADPH, 1.5-2 hours at room temperature.
T1 construct: expressed in transfected cells; mitochondrial fraction
T1 sequence (P19099 25-503): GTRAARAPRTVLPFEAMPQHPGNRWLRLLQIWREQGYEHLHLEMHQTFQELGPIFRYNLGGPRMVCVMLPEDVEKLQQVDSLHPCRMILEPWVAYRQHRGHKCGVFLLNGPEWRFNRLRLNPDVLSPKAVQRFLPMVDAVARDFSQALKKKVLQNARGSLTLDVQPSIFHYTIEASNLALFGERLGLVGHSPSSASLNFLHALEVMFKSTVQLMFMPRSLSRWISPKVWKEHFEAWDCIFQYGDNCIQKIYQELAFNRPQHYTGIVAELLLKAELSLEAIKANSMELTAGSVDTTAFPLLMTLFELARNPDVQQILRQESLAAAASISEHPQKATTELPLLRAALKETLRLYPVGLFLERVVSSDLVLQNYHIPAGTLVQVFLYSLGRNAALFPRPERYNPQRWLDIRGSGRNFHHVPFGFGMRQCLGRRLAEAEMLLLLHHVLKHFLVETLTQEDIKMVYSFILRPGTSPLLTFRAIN
Type: biochemical
Procedure: Experimental Example 1 (Inhibitory Effect on hCYP11B2)
The pcDNA3.1-human CYP11B2 plasmid was transfected into a Chinese hamster lung fibroblast V79 cell line to produce a cell line stably expressing human CYP11B2 gene.
The cells were cultured and grown in the Dulbecco's modified Eagle's/Ham's medium supplemented with 10% fetal bovine serum and 1% G418 disulfate solution under the environment of 37° C., 95% air, and 5% CO2, and the grown cells were harvested.
Then, the cells were fractionated to obtain mitochondria by reference to a method described in Chabre et al. JCE & M 85 (11) 4060-68, 2000. In particular, the cells suspended in a 5 mmol/L Tris-HCl buffer (pH 7.4) containing 250 mmol/L sucrose were homogenized in a Teflon (Registered Trademark) Potter Elvehjem homogenizer, and then the suspension was centrifuged (800×g, 15 min.). The supernatant was separated and again centrifuged (10000×g, 15 min.) to obtain a pellet (mitochondrial fraction).
The mitochondrial fraction diluted with a buffer containing 10 mmol/L KH2PO4, 10 mmol/L Tris, 20 mmol/L KCl, 25 mmol/L sucrose, 5 mmol/L MgCl2, and 0.05% bovine serum albumin was dispensed to a 96-well plate. 0.5 μmol/L Deoxycorticosterone, 150 μmol/L NADPH and a compound of each concentration were added to each well, and incubated for 1.5-2 hours at room temperature to produce aldosterone. An amount of the produced aldosterone in the incubated solution was determined by using HTRF (Homogeneous Time Resolved Fluorescence) method.
IC50 (nmol/L) was calculated by analyzing the aldosterone production inhibition rate (%) of each concentration of compounds by non-linear regression to a logistic curve.
Work on O=C(CN1CCN(c2cc(-c3ccc(F)cc3)cnn2)CC1)N[C@@H]1CCNC[C@H]1F (single isomer, unassigned) [Example 89a] yielded an IC50 of 7.4 nM.
O=C(CN1CCN(c2cc(-c3ccc(Cl)cc3)cnn2)CC1)NC1CCNCC1O (single isomer, unassigned) [Example 90a] showed an IC50 of 33 nM.
O=C(CN1CCN(c2cc(-c3ccc(Cl)cc3)cnn2)CC1)NC1CCNCC1O (single isomer, unassigned) [Example 90b] was tested, and the IC50 was 76 nM.
In the case of CN1CCC(NC(=O)CN2CCN(c3cc(-c4ccc(Cl)cc4)cnn3)CC2)CC1=O (single isomer, unassigned) [Example 91a], the IC50 is reported as 30 nM.
CN1CCC(NC(=O)CN2CCN(c3cc(-c4ccc(Cl)cc4)cnn3)CC2)CC1=O (single isomer, unassigned) [Example 91b] was tested, and the IC50 was 12 nM.
With O=C(CN1CCN(c2cncc(-c3ccc(F)cc3)c2)CC1)NC1CCn2ccnc2C1 (stereo not drawn) [Example 1] the IC50 was 6.6 nM.
CC(C)(C)OC(=O)N1C2COCC1CC(NC(=O)CN1CCN(c3cncc(-c4ccc(F)cc4)c3)CC1)C2 (stereo not drawn) [Example 5] showed an IC50 of 14 nM.
For CN(C)[C@H]1CC[C@@H](NC(=O)CN2CCN(c3cncc(-c4ccc(F)cc4)c3)CC2)CC1 [Example 6], the IC50 was 13 nM.
With Cc1ccccc1-c1cncc(N2CCN(CC(=O)Nc3cnn(C)c3)CC2)c1 [Example 7] the IC50 was 4.8 nM.
Cc1ccccc1-c1cncc(N2CCN(CC(=O)N[C@H](CO)C(C)C)CC2)c1 [Example 8] showed an IC50 of 4.9 nM.
Cc1ccc(-c2cncc(N3CCN(CC(=O)NC4CC5COCC(C4)C5O)CC3)c2)cc1 (stereo not drawn) [Example 10] was tested, and the IC50 was 9.2 nM.
CC(C)NC(=O)CN1CCN(c2cncc(-c3ccc(C#N)nc3)c2)CC1 [Example 11] showed an IC50 of 18 nM.
With CC(C)NC(=O)CN1CCN(c2cncc(-c3ccc4c(c3)CCO4)c2)CC1 [Example 13] the IC50 was 11 nM.
For CC(C)NC(=O)CN1CCN(c2cncc(-c3ccc4cn[nH]c4c3)c2)CC1 [Example 14], the IC50 was 30 nM.
Work on CC(C)NC(=O)CN1CCN(c2cncc(-c3ccc4cnn(C)c4c3)c2)CC1 [Example 15] yielded an IC50 of 18 nM.
Compound CC1CC=C(c2cncc(N3CCN(CC(=O)NC(C)C)CC3)c2)CC1 (stereo not drawn) [Example 16] has an IC50 of 6.9 nM.
CC1CCC(c2cncc(N3CCN(CC(=O)NC(C)C)CC3)c2)CC1 (stereo not drawn) [Example 17] gave an IC50 of 17 nM.
C[C@H](O)CNC(=O)CN1CCN(c2cncc(-c3ccc4cnn(C)c4c3)n2)CC1 [Example 18] was tested, and the IC50 was 14 nM.
Compound CO[C@H]1CC[C@@H](NC(=O)CN2CCN(c3cncc(-c4ccc(C)cc4)n3)CC2)CC1 [Example 20] has an IC50 of 4.5 nM.
With Cc1ccc(-c2cncc(N3CCN(CC(=O)NCC4(O)CCN(C)CC4)CC3)n2)cc1 [Example 21] the IC50 was 28 nM.
Compound Cn1ncc2ccc(-c3cncc(N4CCN(CC(=O)N[C@H]5CC[C@@H](CO)CC5)CC4)n3)cc21 [Example 22] has an IC50 of 19 nM.
CO[C@H]1CC[C@@H](NC(=O)CN2CCN(c3cncc(-c4ccc5cnn(C)c5c4)n3)CC2)CC1 [Example 26] showed an IC50 of 14 nM.
In the case of CN1CCC(NC(=O)CN2CCN(c3cncc(-c4ccc5cnn(C)c5c4)n3)CC2)CC1 [Example 27], the IC50 is reported as 42 nM.
CO[C@H]1CC[C@@H](NC(=O)CN2CCN(c3cncc(-c4ccc5c(cnn5C)c4)n3)CC2)CC1 [Example 28] gave an IC50 of 10 nM.
For Cn1ncc2cc(-c3cncc(N4CCN(CC(=O)N[C@H]5CC[C@@H](N(C)C)CC5)CC4)n3)ccc21 [Example 29], the IC50 was 37 nM.
For Cn1ncc2cc(-c3cncc(N4CCN(CC(=O)N[C@H]5CC[C@@H](C(C)(C)O)CC5)CC4)n3)ccc21 [Example 30], the IC50 was 13 nM.
With CN(C)[C@H]1CC[C@H](NC(=O)CN2CCN(c3cncc(-c4ccc(F)cc4)n3)CC2)CC1 [Example 31] the IC50 was 5.1 nM.
Compound O=C(CN1CCN(c2cncc(-c3ccc(F)cc3)n2)CC1)N[C@H]1CC[C@@H](N2CCOCC2)CC1 [Example 32] has an IC50 of 9.6 nM.
In the case of O=C1CN([C@H]2CC[C@@H](NC(=O)CN3CCN(c4cncc(-c5ccc(F)cc5)n4)CC3)CC2)CCN1 [Example 33], the IC50 is reported as 3.9 nM.
O=C(CN1CCN(c2cncc(-c3ccc(F)cc3)n2)CC1)NC1CCN(C2CCOCC2)CC1 [Example 34] showed an IC50 of 7 nM.
Work on CS(=O)(=O)CCN1CCC(NC(=O)CN2CCN(c3cncc(-c4ccc(F)cc4)n3)CC2)CC1 [Example 35] yielded an IC50 of 8.6 nM.
O=C(CN1CCN(c2cncc(-c3ccc(F)cc3)n2)CC1)NC1CCN(c2ncccn2)CC1 [Example 36] was tested, and the IC50 was 4.8 nM.
In the case of CC(=O)N[C@H]1CC[C@@H](NC(=O)CN2CCN(c3cncc(-c4ccc(F)cc4)n3)CC2)CC1 [Example 37], the IC50 is reported as 8.4 nM.
CN(C)[C@H]1CC[C@@H](NC(=O)CN2CCN(c3cncc(-c4ccc(Cl)cc4)n3)CC2)CC1 [Example 38] showed an IC50 of 8.7 nM.
With CC(C)[C@@H](CO)NC(=O)CN1CCN(c2cncc(-c3ccc(Cl)cc3)n2)CC1 [Example 39] the IC50 was 4.3 nM.
Compound O=C(CN1CCN(c2cncc(-c3ccc(Cl)cc3)n2)CC1)NN1CCCC1 [Example 40] has an IC50 of 4 nM.
For O=C(CN1CCN(c2cncc(-c3ccc(Cl)cc3)n2)CC1)NC1CCS(=O)(=O)CC1 [Example 41], the IC50 was 9.6 nM.
CC(C)[C@@H](CO)NC(=O)CN1CCN(c2cncc(-c3ccc(C(F)(F)F)cc3)n2)C[C@H]1C [Example 42] showed an IC50 of 40 nM.
With C[C@@H]1CN(c2cncc(-c3ccc(C(F)(F)F)cc3)n2)CCN1CC(=O)N[C@H]1CC[C@](C)(O)CC1 [Example 43] the IC50 was 41 nM.
Compound C[C@@H]1CN(c2cncc(-c3ccc(C(F)(F)F)cc3)n2)CCN1CC(=O)N[C@@H](C)C(C)(C)O [Example 44] has an IC50 of 56 nM.
Work on C[C@@H]1CN(c2cncc(-c3ccc(C(F)(F)F)cc3)n2)CCN1CC(=O)NCC(C)(C)O [Example 45] yielded an IC50 of 20 nM.
For C[C@@H]1CN(c2cncc(-c3ccc(C(F)(F)F)cc3)n2)CCN1CC(=O)N[C@H]1CCC[C@H]1O [Example 46], the IC50 was 26 nM.
For Cc1ccccc1-c1cncc(N2CCN(CC(=O)NC3CCN(CCS(C)(=O)=O)CC3)CC2)n1 [Example 47], the IC50 was 22 nM.
Compound Cc1ccccc1-c1cncc(N2CCN(CC(=O)N[C@H]3CN4CCC3CC4)CC2)n1 [Example 48] has an IC50 of 14 nM.
CC(C)NC(=O)CN1CCN(c2cncc(-c3ccc4c(cnn4C)c3)n2)CC1 [Example 50] was tested, and the IC50 was 48 nM.
For CC(C)NC(=O)CN1CCN(c2cncc(-c3ccc(C(F)(F)F)cc3)n2)C[C@H]1C [Example 51], the IC50 was 17 nM.
Work on CC1CCC(c2cncc(N3CCN(CC(=O)NC(C)C)CC3)n2)CC1 (stereo not drawn) [Example 52] yielded an IC50 of 18 nM.
Compound CC(C)NC(=O)CN1CCN(c2cncc(-c3ccc(C#N)nc3)n2)CC1 [Example 53] has an IC50 of 25 nM.
For Cn1ncc2ccc(-c3cncc(N4CCN(CC(=O)NN5CCCC5)CC4)n3)cc21 [Example 54], the IC50 was 16 nM.
Compound CC(C)NC(=O)CN1CCN(c2cncc(-c3ccc4c(c3)CCO4)n2)CC1 [Example 55] has an IC50 of 2.2 nM.
With CC(C)NC(=O)CN1CCN(c2cncc(-c3ccc4cn[nH]c4c3)n2)CC1 [Example 56] the IC50 was 38 nM.
In the case of Cc1ccccc1-c1cnnc(N2CCN(CC(=O)N[C@H]3CC[C@H](N4CCOCC4)CC3)CC2)c1 [Example 57], the IC50 is reported as 16 nM.
With Cc1ccc(-c2cnnc(N3CCN(CC(=O)N[C@@H]4CCOC[C@@H]4O)CC3)c2)cc1 [Example 58] the IC50 was 20 nM.
For CNC(=O)CN1CCC(NC(=O)CN2CCN(c3cc(-c4ccc(C)cc4)cnn3)CC2)CC1 [Example 59], the IC50 was 23 nM.
Cc1ccc(-c2cnnc(N3CCN(CC(=O)NC[C@H]4CN(C)CCO4)CC3)c2)cc1 [Example 60] showed an IC50 of 18 nM.
For Cc1ccccc1-c1cnnc(N2CCN(CC(=O)Nc3cccnc3)CC2)c1 [Example 61], the IC50 was 2.5 nM.
CS(=O)(=O)N1CCC(CNC(=O)CN2CCN(c3cc(-c4ccc(F)cc4)cnn3)CC2)CC1 [Example 62] showed an IC50 of 11 nM.
For C[C@H](O)CNC(=O)CN1CCN(c2cc(-c3ccc(F)cc3)cnn2)CC1 [Example 63], the IC50 was 8.8 nM.
With CC(C)(C)OC(=O)N1CCN(CCNC(=O)CN2CCN(c3cc(-c4ccc(F)cc4)cnn3)CC2)CC1 [Example 64] the IC50 was 6.6 nM.
COC1CCN(NC(=O)CN2CCN(c3cc(-c4ccc(Cl)cc4)cnn3)CC2)CC1 [Example 65] showed an IC50 of 9.1 nM.
For CNC(=O)COC1CCC(NC(=O)CN2CCN(c3cc(-c4ccc(F)cc4)cnn3)CC2)CC1 (stereo not drawn) [Example 66], the IC50 was 9.6 nM.
In the case of CN(C)[C@H]1CC[C@@H](NC(=O)CN2CCN(c3cc(-c4c(F)cccc4F)cnn3)CC2)CC1 [Example 67], the IC50 is reported as 41 nM.
With CNC(=O)COC1CCC(NC(=O)CN2CCN(c3cc(-c4ccc(Cl)cc4)cnn3)CC2)CC1 (stereo not drawn) [Example 68] the IC50 was 8.3 nM.

— patent US10717731B2, “Nitrogen-containing aromatic heterocyclic compound” (MITSUBISHI TANABE PHARMA CORPORATION, priority 2015, dated 2020)
